Data on 41 molecules can be found in patent US9657014B2, “Substituted 1,6-naphthyridines” (Hoffmann-La Roche Inc., priority 2012, dated 2017).

The assay concerns human embryonic stem cell derived neural stem cells (NSCs). The assay can be described thus: Neural stem cell proliferation assay (neurogenesis assay). Format: cell-based. To be noted: Homo sapiens, Neural stem cell, 96 h, concentration at which 150% activity of control (100%) is reached, ATP levels (CellTiterGlo) after 4 days incubation. The method, boiled down:
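NSCs derived from human ES cells by dual SMAD inhibition, seeded on polyornithin/laminin, dosed 4 h later (11 points, 8 μM to 8 nM). After 4 days at 37° C, ATP luminescence read; response = compound/medium control ×100, EC150 = concentration giving 150% of control.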

`O=C(c1ccc2cncc(-c3cc4ccccc4o3)c2n1)N1CCCCC1` [Example 205, (8-Benzofuran-2-yl-[1,6]naphthyridin-2-yl)-piperidin-1-yl-methanone] registered an EC (150% of control) (Table 2, known compounds) of 3.5 µM.
Under “Table 1, novel compounds”, `CS(=O)(=O)NNC(=O)c1ccc2cncc(-c3ccc(Cl)cc3)c2n1` [Example 49, N′-(8-(4-Chlorophenyl)-1,6-naphthyridine-2-carbonyl)methanesulfonohydrazide] returned an EC (150% of control) of 0.07 µM.
On the same count and under the same terms, as for `CN(CC1CC1)C(=O)c1ccc2cncc(-c3ccc(Cl)cc3)c2n1` [Example 66, 8-(4-Chlorophenyl)-N-(cyclopropylmethyl)-N-methyl-1,6-naphthyridine-2-carboxamide], the figure is 0.7 µM; as for `CC(C)(C)CNC(=O)c1ccc2cncc(-c3ccc(F)c(F)c3)c2n1` [Example 121, 8-(3,4-Difluorophenyl)-N-neopentyl-1,6-naphthyridine-2-carboxamide], 0.26 µM.
`CS(=O)(=O)c1ccc(CNC(=O)c2ccc3cncc(-c4ccc(F)cc4F)c3n2)cc1` [Example 114, 8-(2,4-Difluorophenyl)-N-(4-(methylsulfonyl)benzyl)-1,6-naphthyridine-2-carboxamide] had an EC (150% of control) (Table 1, novel compounds) of 0.51 µM.
On the same count and under the same terms, the result for `COCc1ccc(-c2cncc3ccc(C(N)=O)nc23)cc1` [Example 104, 8-(4-(Methoxymethyl)phenyl)-1,6-naphthyridine-2-carboxamide] reads 0.02 µM; that for `Cn1nccc1-c1cncc2ccc(C(N)=O)nc12` [Example 99, 8-(1-Methyl-1H-pyrazol-5-yl)-1,6-naphthyridine-2-carboxamide], 2.2 µM.
Turning to `CC(NC(=O)c1ccc2cncc(-c3ccccc3Cl)c2n1)C(C)(C)O` (centres unmarked) [Example 171, 8-(2-Chlorophenyl)-N-(3-hydroxy-3-methylbutan-2-yl)-1,6-naphthyridine-2-carboxamide], the EC (150% of control) (Table 1, novel compounds) was 0.12 µM.
`COc1ccccc1-c1cncc2ccc(C(=O)NCCCn3ccnc3)nc12` [Example 39, N-(3-(1H-Imidazol-1-yl)propyl)-8-(2-methoxyphenyl)-1,6-naphthyridine-2-carboxamide] displayed an EC (150% of control) (Table 1, novel compounds) of 0.74 µM.
In turn, `COc1ccc(-c2cncc3ccc(C(=O)NCCCn4ccnc4)nc23)cc1` [Example 179, 8-(4-Methoxy-phenyl)-[1,6]naphthyridine-2-carboxylic acid (3-imidazol-1-yl-propyl)-amide] came in with an EC (150% of control) (Table 2, known compounds) of 0.7 µM.
For the setting “Table 1, novel compounds”, `CCCCCCC(=O)NCc1cccc(-c2cncc3ccc(C(N)=O)nc23)c1` [Example 151, 8-(3-(Heptanamidomethyl)phenyl)-1,6-naphthyridine-2-carboxamide] registered an EC (150% of control) of 0.03 µM.
Regarding `COc1ccc(-c2cncc3ccc(C(=O)NCc4cccnc4)nc23)cc1` [Example 22, 8-(4-Methoxyphenyl)-N-(pyridin-3-ylmethyl)-1,6-naphthyridine-2-carboxamide], the EC (150% of control) (Table 1, novel compounds) worked out at 0.03 µM.
As for `COCCNC(=O)c1ccc2cncc(Br)c2n1` [Example 1, 8-Bromo-N-(2-methoxyethyl)-1,6-naphthyridine-2-carboxamide], the EC (150% of control) (Table 1, novel compounds) was 1.2 µM.
The same measure, in the same setting: as for `O=C(NCCCn1ccnc1)c1ccc2cncc(-c3ccncc3)c2n1` [Example 41, N-(3-(1H-Imidazol-1-yl)propyl)-8-(pyridin-4-yl)-1,6-naphthyridine-2-carboxamide], the figure is 1.7 µM; as for `COc1ccc(-c2cncc3ccc(C(=O)NCCC(F)(F)F)nc23)cc1` [Example 35, 8-(4-Methoxyphenyl)-N-(3,3,3-trifluoropropyl)-1,6-naphthyridine-2-carboxamide], 1.74 µM; as for `NC(=O)c1ccc2cncc(-c3ccc(F)cc3)c2n1` [Example 77, 8-(4-Fluorophenyl)-1,6-naphthyridine-2-carboxamide], 0.09 µM.
`O=C(NCC(F)(F)F)c1ccc2cncc(-c3cccc(F)c3)c2n1` [Example 123, 8-(3-Fluorophenyl)-N-(2,2,2-trifluoroethyl)-1,6-naphthyridine-2-carboxamide]: the EC (150% of control) (Table 1, novel compounds) was determined as 0.38 µM.
`O=C(NCCCn1ccnc1)c1ccc2cncc(-c3ccccc3)c2n1` [Example 189, 8-Phenyl-[1,6]naphthyridine-2-carboxylic acid (3-imidazol-1-yl-propyl)-amide]: the EC (150% of control) (Table 2, known compounds) was found to be 1.2 µM.
The molecule `O=C(c1ccc2cncc(-c3ccc(Cl)cc3)c2n1)N1CCC(O)C1` (centres unmarked) [Example 75, (8-(4-Chlorophenyl)-1,6-naphthyridin-2-yl)(3-hydroxypyrrolidin-1-yl)methanone] returned an EC (150% of control) (Table 1, novel compounds) of 0.4 µM.
Take `COc1ccc(-c2cncc3ccc(C(=O)NCCCn4nc(C)cc4C)nc23)cc1` [Example 42, N-(3-(3,5-Dimethyl-1H-pyrazol-1-yl)propyl)-8-(4-methoxyphenyl)-1,6-naphthyridine-2-carboxamide]: the EC (150% of control) (Table 1, novel compounds) is 0.25 µM.
Still for that read-out and setting: as for `CC(C)(C)CNC(=O)c1ccc2cncc(-c3ccc(Cl)cc3)c2n1` [Example 68, 8-(4-Chlorophenyl)-N-neopentyl-1,6-naphthyridine-2-carboxamide], the figure is 0.07 µM; as for `COCCNC(=O)c1ccc2cncc(-c3ccccc3OC)c2n1` [Example 5, N-(2-Methoxyethyl)-8-(2-methoxyphenyl)-1,6-naphthyridine-2-carboxamide], 0.26 µM.
Regarding `O=C(NCCCN1CCOCC1)c1ccc2cncc(-c3ccccc3)c2n1` [Example 188, 8-Phenyl-[1,6]naphthyridine-2-carboxylic acid (3-morpholin-4-yl-propyl)-amide], the EC (150% of control) (Table 2, known compounds) is 6.8 µM.
For the setting “Table 1, novel compounds”, `Cc1cc2cncc(-c3ccc(F)cc3)c2nc1C(N)=O` [Example 153, 8-(4-Fluorophenyl)-3-methyl-1,6-naphthyridine-2-carboxamide] displayed an EC (150% of control) of 0.79 µM.
Where the note is “Table 1, novel compounds”, `COCCNC(=O)c1ccc2cncc(-c3ccncc3)c2n1` [Example 18, N-(2-Methoxyethyl)-8-(pyridin-4-yl)-1,6-naphthyridine-2-carboxamide] yielded an EC (150% of control) of 0.31 µM.
The same measure, in the same setting: as for `O=C(NCCO)c1ccc2cncc(-c3ccc(Cl)cc3)c2n1` [Example 158, 8-(4-Chlorophenyl)-N-(2-hydroxyethyl)-1,6-naphthyridine-2-carboxamide], the figure is 0.09 µM; as for `O=C(NCC(F)(F)F)c1ccc2cncc(-c3ccccc3F)c2n1` [Example 125, 8-(2-Fluorophenyl)-N-(2,2,2-trifluoroethyl)-1,6-naphthyridine-2-carboxamide], 0.04 µM.
The molecule `NC(=O)c1ccc2cncc(N3CCOCC3)c2n1` [Example 142, 8-Morpholino-1,6-naphthyridine-2-carboxamide] came in with an EC (150% of control) (Table 1, novel compounds) of 0.94 µM.
For `CC(NC(=O)c1ccc2cncc(-c3ccc(OCC(F)(F)F)cc3)c2n1)C(C)(C)O` (centres unmarked) [Example 163, N-(3-Hydroxy-3-methylbutan-2-yl)-8-(4-(2,2,2-trifluoroethoxyl)phenyl)-1,6-naphthyridine-2-carboxamide], under “Table 1, novel compounds”, the EC (150% of control) worked out at 0.07 µM.
On the same count and under the same terms, as for `CS(=O)(=O)CCNC(=O)c1ccc2cncc(-c3ccccc3F)c2n1` [Example 133, 8-(2-Fluorophenyl)-N-(2-(methylsulfonyl)ethyl)-1,6-naphthyridine-2-carboxamide], the figure is 0.23 µM; as for `CS(=O)(=O)CCNC(=O)c1ccc2cncc(-c3ccc(Cl)cc3)c2n1` [Example 72, 8-(4-Chlorophenyl)-N-(2-(methylsulfonyl)ethyl)-1,6-naphthyridine-2-carboxamide], 0.1 µM.
Same read-out and setting: as for `NC(=O)c1ccc2cncc(-c3ccc4c(c3)OCO4)c2n1` [Example 91, 8-(Benzo[d][1,3]dioxol-5-yl)-1,6-naphthyridine-2-carboxamide], the figure is 0.03 µM; as for `CS(=O)(=O)c1ccc(CNC(=O)c2ccc3cncc(-c4ccccc4F)c3n2)cc1` [Example 112, 8-(2-Fluorophenyl)-N-(4-(methylsulfonyl)benzyl)-1,6-naphthyridine-2-carboxamide], 0.25 µM; as for `Cc1ccnc(-c2cncc3ccc(C(=O)NCc4ccccc4)nc23)c1` [Example 24, N-Benzyl-8-(4-methylpyridin-2-yl)-1,6-naphthyridine-2-carboxamide], 0.94 µM.
Still for that read-out and setting: as for `COc1ccc(-c2cncc3ccc(C(N)=O)nc23)cn1` [Example 89, 8-(6-Methoxypyridin-3-yl)-1,6-naphthyridine-2-carboxamide], the figure is 0.09 µM.
Under “Table 1, novel compounds”, `COCCNC(=O)c1ccc2cncc(-c3cccnc3)c2n1` [Example 19, N-(2-methoxyethyl)-8-(pyridin-3-yl)-1,6-naphthyridine-2-carboxamide] gave an EC (150% of control) of 0.49 µM.
`COc1ccccc1-c1cncc2ccc(C(=O)NCc3ccncc3)nc12` [Example 27, 8-(2-Methoxyphenyl)-N-(pyridin-4-ylmethyl)-1,6-naphthyridine-2-carboxamide] showed an EC (150% of control) (Table 1, novel compounds) of 0.56 µM.
On the same count and under the same terms, the result for `CC(C)(CO)NC(=O)c1ccc2cncc(-c3ccc(Cl)cc3)c2n1` [Example 71, 8-(4-Chlorophenyl)-N-(1-hydroxy-2-methylpropan-2-yl)-1,6-naphthyridine-2-carboxamide] reads 1.06 µM; that for `CS(=O)(=O)c1cccc(-c2cncc3ccc(C(N)=O)nc23)c1` [Example 87, 8-(3-(Methylsulfonyl)phenyl)-1,6-naphthyridine-2-carboxamide], 0.79 µM.
Where the note is “Table 1, novel compounds”, `CC(NC(=O)c1ccc2cncc(-c3cccc(F)c3)c2n1)c1ccc(S(C)(=O)=O)cc1` (centres unmarked) [Example 109, 8-(3-Fluorophenyl)-N-(1-(4-(methylsulfonyl)phenyl)ethyl)-1,6-naphthyridine-2-carboxamide] displayed an EC (150% of control) of 4.2 µM.
For `CC(C)(C)CNC(=O)c1ccc2cncc(-c3cccc(F)c3)c2n1` [Example 119, 8-(3-Fluorophenyl)-N-neopentyl-1,6-naphthyridine-2-carboxamide], for the setting “Table 1, novel compounds”, the EC (150% of control) turned out to be 0.27 µM.
